Molecular target: IRE1α (Homo sapiens, UniProt O75460)
Test: fluorescent XBP1 mini-substrate RNase assay with recombinant IRE1α*
Assay type: biochemical

Sequence of IRE1α (O75460 469-977): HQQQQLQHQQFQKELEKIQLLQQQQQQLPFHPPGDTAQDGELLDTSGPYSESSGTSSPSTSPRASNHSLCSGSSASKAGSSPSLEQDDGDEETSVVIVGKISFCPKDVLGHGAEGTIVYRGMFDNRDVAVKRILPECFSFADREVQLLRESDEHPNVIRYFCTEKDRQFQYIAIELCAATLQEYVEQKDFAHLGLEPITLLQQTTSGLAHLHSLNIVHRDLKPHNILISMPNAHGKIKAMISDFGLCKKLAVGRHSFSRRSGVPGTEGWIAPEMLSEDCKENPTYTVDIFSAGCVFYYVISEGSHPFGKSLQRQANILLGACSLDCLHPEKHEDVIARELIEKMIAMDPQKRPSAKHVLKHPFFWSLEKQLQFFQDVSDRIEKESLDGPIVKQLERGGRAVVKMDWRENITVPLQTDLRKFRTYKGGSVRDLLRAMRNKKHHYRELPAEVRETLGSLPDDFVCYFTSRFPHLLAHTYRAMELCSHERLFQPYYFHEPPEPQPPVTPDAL

CC(C)(C)c1nc(-c2ccc(NC(=O)Nc3cccc(C(F)(F)F)c3)c3ccccc23)c2c(N)nccn12 [KIRA6, 1-(4-(8-amino-3-tert-butylimidazo[1,5-a]pyrazin-1-yl)naphthalen-1-yl)-3-(3-(trifluoromethyl)phenyl)urea]
IC50: 40.1 nM

— paper PMC5497784 (Cell metabolism, 2017)
